# Assays:
# [1] = PK profile of HBI-2375 in plasma and brain in C57BL/6J mice; format: in vivo; details: for AUClast Ratio, group 3 vs 2 / Cmax Ratio, group 3 vs 2: repeat PO vs PO 80 mg/kg; for Cmax at 7 day / Tmax at 7 day / Cmax / MRT last / Tmax: mouse, C57BL/6J mice; for Cmax at 7 day / Tmax at 7 day: 7-day repeat PO 80 mg/kg
# Experimental: EXAMPLE 4: PK profile of compound of Formula (IIIb) (HBI-2375, HYBI-84) in plasma and brain in C57BL/6J mice: This study was conducted in accordance with the Study Protocol and Pharmaron (Ningbo) TSP's Standard Operating Procedures (SOPs) following all regulatory protocols. This study was conducted under non-GLP environment.
# Following single oral gavage administration of HBI-2375 at 40 mg/kg, 80 mg/kg, and 7-day repeat oral gavage administration at 80 mg/kg in C57BL/6J mice, concentrations of HBI-2375 in plasma and brain were determined by LC-MS/MS methods. […] The maximal concentrations of HBI-2375 in brain were all observed at 4 hr post-dose. […] The exposure of HBI-2375 in plasma and brain of females were closed to that of males, the ratios were 0.989-1.22 for plasma, and 1.10-1.34 for brain.
# in vitro = details: dog, plasma
# [2] = mice, repeat PO 80 mg/kg, brain
# [3] = mice, repeat PO 80 mg/kg, plasma
# [4] = mice, single PO 40 mg/kg, brain
# [5] = mice, single PO 40 mg/kg, plasma
# [6] = mice, single PO 80 mg/kg, brain
# [7] = mice, single PO 80 mg/kg, plasma
# [8] = single PO 40 mg/kg, brain, female
# [9] = single PO 40 mg/kg, brain, male
# [10] = single PO 40 mg/kg, plasma, female
# [11] = single PO 40 mg/kg, plasma, male
# [12] = single PO 80 mg/kg, brain, female
# [13] = single PO 80 mg/kg, brain, male
# [14] = single PO 80 mg/kg, plasma, female
# [15] = single PO 80 mg/kg, plasma, male
structure (smiles),measurement,setting,value
"Cc1c(F)c(N)cc(C(=O)Nc2cc(-n3cc(C(=O)N4CCN(C)CC4)nn3)c(F)cc2N2C[C@@H](C)N(C)[C@@H](C)C2)c1Cl [HYBI-084, 5-amino-2-chloro-4-fluoro-N-(4-fluoro-5-(4-(4-methylpiperazine-1-carbonyl)-1H-1,2,3-triazol-1-yl)-2-((3S,5R)-3,4,5-trimethylpiperazin-1-yl)phenyl)-3-methylbenzamide]",AUClast ratios 80 vs 40 mg/kg single dose,"[1]; mice, plasma, both sexes",2.32-2.41
same,AUClast Ratio Female/Male,[1]; [2],1.34
same,Cmax Ratio Female/Male,[1]; [2],1.24
same,C24hr/Cmax Ratio (%),"[1]; mice, repeat PO 80 mg/kg, brain, female",18.9%
same,C24hr/Cmax Ratio (%),"[1]; mice, repeat PO 80 mg/kg, brain, male",14.4%
same,AUClast Ratio Female/Male,[1]; [3],1.22
same,Cmax Ratio Female/Male,[1]; [3],1.27
same,C24hr/Cmax Ratio (%),"[1]; mice, repeat PO 80 mg/kg, plasma, female",3.94%
same,C24hr/Cmax Ratio (%),"[1]; mice, repeat PO 80 mg/kg, plasma, male",2.68%
same,"AUClast Ratio, group 3 vs 2","[1]; mice, brain, female",1.87
same,"Cmax Ratio, group 3 vs 2","[1]; mice, brain, female",1.60
same,"AUClast Ratio, group 3 vs 2","[1]; mice, brain, male",1.54
same,"Cmax Ratio, group 3 vs 2","[1]; mice, brain, male",1.44
same,"AUClast Ratio, group 3 vs 2","[1]; mice, plasma, female",1.23
same,"Cmax Ratio, group 3 vs 2","[1]; mice, plasma, female",0.726
same,"AUClast Ratio, group 3 vs 2","[1]; mice, plasma, male",1.04
same,"Cmax Ratio, group 3 vs 2","[1]; mice, plasma, male",0.552
same,AUClast Ratio Female/Male,[1]; [4],1.16
same,Cmax Ratio Female/Male,[1]; [4],1.15
same,mean concentration at 24 hr post-dose as % of Cmax,"[1]; mice, single PO 40 mg/kg, brain, both sexes",10.4-11.1%
same,C24hr/Cmax Ratio (%),"[1]; mice, single PO 40 mg/kg, brain, female",11.1%
same,C24hr/Cmax Ratio (%),"[1]; mice, single PO 40 mg/kg, brain, male",10.4%
same,AUClast Ratio Female/Male,[1]; [5],0.989
same,Cmax Ratio Female/Male,[1]; [5],0.976
same,mean concentration at 24 hr post-dose as % of Cmax,"[1]; mice, single PO 40 mg/kg, plasma, both sexes",0.748-1.10%
same,C24hr/Cmax Ratio (%),"[1]; mice, single PO 40 mg/kg, plasma, female",1.10%
same,C24hr/Cmax Ratio (%),"[1]; mice, single PO 40 mg/kg, plasma, male",0.748%
same,AUClast Ratio Female/Male,[1]; [6],1.10
same,Cmax Ratio Female/Male,[1]; [6],1.11
same,mean concentration at 24 hr post-dose as % of Cmax,"[1]; mice, single PO 80 mg/kg, brain, both sexes",9.71-11.2%
same,C24hr/Cmax Ratio (%),"[1]; mice, single PO 80 mg/kg, brain, female",9.71%
same,C24hr/Cmax Ratio (%),"[1]; mice, single PO 80 mg/kg, brain, male",11.2%
same,AUClast Ratio Female/Male,[1]; [7],1.03
same,Cmax Ratio Female/Male,[1]; [7],0.967
same,mean concentration at 24 hr post-dose as % of Cmax,"[1]; mice, single PO 80 mg/kg, plasma, both sexes",0.671-0.757%
same,C24hr/Cmax Ratio (%),"[1]; mice, single PO 80 mg/kg, plasma, female",0.671%
same,C24hr/Cmax Ratio (%),"[1]; mice, single PO 80 mg/kg, plasma, male",0.757%
same,in-life observations,"[1]; mice, single PO 40, 80 mg/kg and 7-day repeat PO 80 mg/kg",no abnormalities were observed
same,dose proportionality of AUClast and Cmax in plasma and brain,"[1]; mice, single PO 40 and 80 mg/kg",proportional increase of exposure
same,Cmax at 7 day,"[1]; brain, female",892 ng/g
same,Tmax at 7 day,"[1]; brain, female",4 h
same,Cmax at 7 day,"[1]; brain, male",722 ng/g
same,Tmax at 7 day,"[1]; brain, male",4 h
same,Cmax at 7 day,"[1]; plasma, female",2840 ng/mL
same,Tmax at 7 day,"[1]; plasma, female",1 h
same,Cmax at 7 day,"[1]; plasma, male",2230 ng/mL
same,Tmax at 7 day,"[1]; plasma, male",1 h
same,Cmax,[1]; [8],192 ng/g
same,MRT last,[1]; [8],8.25 h
same,Tmax,[1]; [8],4 h
same,Cmax,[1]; [9],167 ng/g
same,MRT last,[1]; [9],8.05 h
same,Tmax,[1]; [9],4 h
same,Cmax,[1]; [10],1120 ng/mL
same,MRT last,[1]; [10],5.3 h
same,Tmax,[1]; [10],0.5 h
same,Cmax,[1]; [11],1150 ng/mL
same,MRT last,[1]; [11],5.22 h
same,Tmax,[1]; [11],0.5 h
same,Cmax,[1]; [12],556 ng/g
same,MRT last,[1]; [12],8.01 h
same,Tmax,[1]; [12],4 h
same,Cmax,[1]; [13],500 ng/g
same,MRT last,[1]; [13],8.4 h
same,Tmax,[1]; [13],4 h
same,Cmax,[1]; [14],3910 ng/mL
same,MRT last,[1]; [14],4.86 h
same,Tmax,[1]; [14],0.5 h
same,Cmax,[1]; [15],4040 ng/mL
same,MRT last,[1]; [15],5.46 h
same,Tmax,[1]; [15],0.5 h
same,fraction unbound,in vitro,< 0.24

# Reference: US20230293539A1, “MLL1-WDR5 PROTEIN-PROTEIN INTERACTION INHIBITOR COMPOUNDS AND USES THEREOF” (HUYABIO International, LLC, priority 2022, published 2023)
